Assay results: US10160747B2, “Compounds and methods for kinase modulation, and indications therefor” (Plexxikon Inc., priority 2016, dated 2018)

Experiments:
FLT3-ITD = biological target: T1, FLT3-ITD (Homo sapiens, UniProt P36888); test: FLT3-ITD recombinant enzyme kinase assay (AlphaScreen); type: biochemical; settings: 8 pt; read-out: FLT3_ITD 8 pt: IC50
T1 sequence (P36888 1-993): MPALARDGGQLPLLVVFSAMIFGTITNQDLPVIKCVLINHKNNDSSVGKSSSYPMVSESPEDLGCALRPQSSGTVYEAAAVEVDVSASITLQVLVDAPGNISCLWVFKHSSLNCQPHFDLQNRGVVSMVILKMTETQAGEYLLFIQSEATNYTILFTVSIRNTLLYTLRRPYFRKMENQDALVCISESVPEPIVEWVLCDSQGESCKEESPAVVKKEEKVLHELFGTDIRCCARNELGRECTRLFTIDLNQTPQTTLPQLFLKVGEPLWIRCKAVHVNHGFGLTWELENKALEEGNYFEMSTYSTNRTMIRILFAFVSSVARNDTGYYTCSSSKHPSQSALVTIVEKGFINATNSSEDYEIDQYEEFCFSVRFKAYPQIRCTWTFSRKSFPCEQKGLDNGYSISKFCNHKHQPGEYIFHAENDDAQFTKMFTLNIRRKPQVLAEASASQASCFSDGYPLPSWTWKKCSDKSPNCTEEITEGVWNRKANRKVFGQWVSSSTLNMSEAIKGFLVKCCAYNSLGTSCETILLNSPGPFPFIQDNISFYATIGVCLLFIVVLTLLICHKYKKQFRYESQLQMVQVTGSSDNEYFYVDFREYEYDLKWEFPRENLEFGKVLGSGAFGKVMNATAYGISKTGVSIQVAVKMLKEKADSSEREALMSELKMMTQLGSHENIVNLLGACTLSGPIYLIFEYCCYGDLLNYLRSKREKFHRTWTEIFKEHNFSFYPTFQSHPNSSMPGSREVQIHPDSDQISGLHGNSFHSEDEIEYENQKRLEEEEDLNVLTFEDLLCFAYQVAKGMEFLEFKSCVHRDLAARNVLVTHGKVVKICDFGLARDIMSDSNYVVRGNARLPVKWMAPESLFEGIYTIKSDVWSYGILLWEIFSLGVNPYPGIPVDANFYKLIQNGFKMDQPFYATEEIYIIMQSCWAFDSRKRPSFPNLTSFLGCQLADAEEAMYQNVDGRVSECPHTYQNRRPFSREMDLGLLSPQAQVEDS
In short: (§1)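 IC50 values come from AlphaScreen proximity signal: phosphorylated biotin-poly(Glu4-Tyr) (30 nM) bridges streptavidin donor and anti-phosphotyrosine PY20 acceptor beads. Enzyme reactions ran at 100 μM ATP for c-KIT versus 10 μM for both FLT3 mutants (ITD, D835Y); beads added in stop buffer, room temperature.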

c-KIT = biological target: T2, c-KIT (Homo sapiens, UniProt P10721); test: c-KIT recombinant enzyme kinase assay (AlphaScreen); type: biochemical; settings: 100 ATP, 8 pt
T2 construct: purchased Millipore 14-559K
In short: as §1

T2 sequence (P10721 26-976): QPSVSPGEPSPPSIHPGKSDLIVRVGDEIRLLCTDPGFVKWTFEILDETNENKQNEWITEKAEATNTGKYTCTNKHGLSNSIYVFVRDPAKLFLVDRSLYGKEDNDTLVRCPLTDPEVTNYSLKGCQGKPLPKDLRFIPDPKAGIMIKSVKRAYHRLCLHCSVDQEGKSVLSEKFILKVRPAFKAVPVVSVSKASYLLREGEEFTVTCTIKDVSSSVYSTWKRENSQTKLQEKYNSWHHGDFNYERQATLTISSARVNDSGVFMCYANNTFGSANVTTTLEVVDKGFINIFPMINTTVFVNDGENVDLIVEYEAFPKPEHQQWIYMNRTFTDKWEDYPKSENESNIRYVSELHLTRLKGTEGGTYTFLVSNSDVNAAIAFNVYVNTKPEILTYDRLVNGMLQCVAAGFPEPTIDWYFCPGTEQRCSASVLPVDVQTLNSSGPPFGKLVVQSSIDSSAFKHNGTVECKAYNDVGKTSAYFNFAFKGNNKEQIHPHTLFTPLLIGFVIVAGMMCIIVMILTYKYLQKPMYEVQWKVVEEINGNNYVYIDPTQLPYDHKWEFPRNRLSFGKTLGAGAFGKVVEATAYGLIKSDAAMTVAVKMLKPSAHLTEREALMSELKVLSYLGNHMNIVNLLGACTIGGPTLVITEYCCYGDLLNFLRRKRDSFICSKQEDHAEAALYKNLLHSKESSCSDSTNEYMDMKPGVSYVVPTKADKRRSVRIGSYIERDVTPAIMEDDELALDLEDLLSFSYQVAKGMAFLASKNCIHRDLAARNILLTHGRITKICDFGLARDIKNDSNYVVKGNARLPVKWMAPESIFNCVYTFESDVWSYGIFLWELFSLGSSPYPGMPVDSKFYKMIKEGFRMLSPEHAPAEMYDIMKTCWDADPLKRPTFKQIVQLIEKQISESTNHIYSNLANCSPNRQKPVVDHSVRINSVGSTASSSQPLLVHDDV

SMILES: Cc1ncc(NC(=O)Cc2ccc(-c3cnc(Nc4cn(C)cn4)nc3)cc2)cc1C(F)(F)F [Compound P-0150, 2-[4-[2-[(1-methylimidazol-4-yl)amino]pyrimidin-5-yl]phenyl]-N-[6-methyl-5-(trifluoromethyl)-3-pyridyl]acetamide]
- IC50 (FLT3-ITD): 0.0001 to 10 µM
- IC50 (c-KIT): 0.0001 to 10 µM

SMILES: Cn1cnc(Nc2ncc(-c3ccc(CC(=O)Nc4cc(C(F)(F)F)ccn4)c(F)c3)cn2)c1 [Compound P-0096, 2-[2-fluoro-4-[2-[(1-methylimidazol-4-yl)amino]pyrimidin-5-yl]phenyl]-N-[4-(trifluoromethyl)-2-pyridyl]acetamide]
- IC50 (FLT3-ITD): 0.0001 to 10 µM
- IC50 (c-KIT): 0.0001 to 10 µM

SMILES: Cn1cc(Nc2ncc(-c3ccc(CC(=O)Nc4ccnc(C(F)(F)F)c4)cc3)cn2)cn1 [Compound P-0134, 2-[4-[2-[(1-methylpyrazol-4-yl)amino]pyrimidin-5-yl]phenyl]-N-[2-(trifluoromethyl)-4-pyridyl]acetamide]
- IC50 (FLT3-ITD): 0.0001 to 10 µM
- IC50 (c-KIT): 0.0001 to 10 µM

SMILES: Cn1cc(Nc2ncc(-c3ccc(CC(=O)Nc4cccc(C(F)(F)F)n4)cc3)cn2)cn1 [Compound P-0152, 2-[4-[2-[(1-methylpyrazol-4-yl)amino]pyrimidin-5-yl]phenyl]-N-[6-(trifluoromethyl)-2-pyridyl]acetamide]
- IC50 (FLT3-ITD): 0.0001 to 10 µM
- IC50 (c-KIT): 0.0001 to 10 µM

SMILES: Cn1cc(Nc2ncc(-c3ccc(CC(=O)Nc4cnc(Cl)c(C(F)(F)F)c4)c(F)c3)cn2)cn1 [Compound P-0092, N-[6-chloro-5-(trifluoromethyl)-3-pyridyl]-2-[2-fluoro-4-[2-[(1-methylpyrazol-4-yl)amino]pyrimidin-5-yl]phenyl]acetamide]
- IC50 (FLT3-ITD): 0.0001 to 10 µM
- IC50 (c-KIT): 0.0001 to 10 µM

SMILES: COc1ncc(NC(=O)Cc2ccc(-c3cnc(Nc4cnn(C)c4)nc3)cc2)cc1C(F)(F)F [Compound P-0138, N-[6-methoxy-5-(trifluoromethyl)-3-pyridyl]-2-[4-[2-[(1-methylpyrazol-4-yl)amino]pyrimidin-5-yl]phenyl]acetamide]
- IC50 (FLT3-ITD): 0.0001 to 10 µM
- IC50 (c-KIT): 0.0001 to 10 µM

SMILES: Cc1ncc(NC(=O)Cc2ccc(-c3cnc(Nc4cnn(C)c4)nc3)cc2F)cc1C(F)(F)F [Compound P-0091, 2-[2-fluoro-4-[2-[(1-methylpyrazol-4-yl)amino]pyrimidin-5-yl]phenyl]-N-[6-methyl-5-(trifluoromethyl)-3-pyridyl]acetamide]
- IC50 (FLT3-ITD): 0.0001 to 10 µM
- IC50 (c-KIT): 0.0001 to 10 µM

SMILES: Cn1cc(Nc2ncc(-c3ccc(CC(=O)Nc4cnc(F)c(C(C)(F)F)c4)cc3)cn2)cn1 [Compound P-0104, N-[5-(1,1-difluoroethyl)-6-fluoro-3-pyridyl]-2-[4-[2-[(1-methylpyrazol-4-yl)amino]pyrimidin-5-yl]phenyl]acetamide]
- IC50 (FLT3-ITD): 0.0001 to 10 µM
- IC50 (c-KIT): 0.0001 to 10 µM

SMILES: Cn1cc(Nc2ncc(-c3ccc(CC(=O)Nc4ccc(S(C)(=O)=O)cc4)cc3)cn2)cn1 [Compound P-0156, 2-[4-[2-[(1-methylpyrazol-4-yl)amino]pyrimidin-5-yl]phenyl]-N-(4-methylsulfonylphenyl)acetamide]
- IC50 (FLT3-ITD): 0.0001 to 10 µM
- IC50 (c-KIT): 0.0001 to 10 µM

SMILES: Cn1cnc(Nc2ncc(-c3ccc(CC(=O)Nc4cc(C(C)(F)F)ccn4)c(F)c3)cn2)c1 [Compound P-0102, N-[4-(1,1-difluoroethyl)-2-pyridyl]-2-[2-fluoro-4-[2-[(1-methylimidazol-4-yl)amino]pyrimidin-5-yl]phenyl]acetamide]
- IC50 (FLT3-ITD): 0.0001 to 10 µM
- IC50 (c-KIT): 0.0001 to 10 µM

SMILES: Cn1cc(Nc2ncc(-c3ccc(CC(=O)Nc4cnc(F)c(C(C)(F)F)c4)c(F)c3)cn2)cn1 [Compound P-0105, N-[5-(1,1-difluoroethyl)-6-fluoro-3-pyridyl]-2-[2-fluoro-4-[2-[(1-methylpyrazol-4-yl)amino]pyrimidin-5-yl]phenyl]acetamide]
- IC50 (FLT3-ITD): 0.0001 to 10 µM
- IC50 (c-KIT): 0.0001 to 10 µM

SMILES: Cn1cc(Nc2ncc(-c3ccc(CC(=O)Nc4cccc(S(C)(=O)=O)c4)cc3)cn2)cn1 [Compound P-0155, 2-[4-[2-[(1-methylpyrazol-4-yl)amino]pyrimidin-5-yl]phenyl]-N-(3-methylsulfonylphenyl)acetamide]
- IC50 (FLT3-ITD): 0.0001 to 10 µM
- IC50 (c-KIT): 0.0001 to 10 µM

SMILES: Cn1cc(Nc2ncc(-c3ccc(CC(=O)Nc4cnnc(Cl)c4)cc3)cn2)cn1 [Compound P-0151, N-(6-chloropyridazin-4-yl)-2-[4-[2-[(1-methylpyrazol-4-yl)amino]pyrimidin-5-yl]phenyl]acetamide]
- IC50 (FLT3-ITD): 0.0001 to 10 µM
- IC50 (c-KIT): 0.0001 to 10 µM

SMILES: Cn1cc(Nc2ncc(-c3ccc(CC(=O)Nc4cncc(C(C)(F)F)c4)cc3)cn2)cn1 [Compound P-0144, N-[5-(1,1-difluoroethyl)-3-pyridyl]-2-[4-[2-[(1-methylpyrazol-4-yl)amino]pyrimidin-5-yl]phenyl]acetamide]
- IC50 (FLT3-ITD): 0.0001 to 10 µM
- IC50 (c-KIT): 0.0001 to 10 µM

SMILES: COc1ncc(NC(=O)Cc2ccc(-c3cnc(Nc4cn(C)cn4)nc3)cc2)cc1C(F)(F)F [Compound P-0149, N-[6-methoxy-5-(trifluoromethyl)-3-pyridyl]-2-[4-[2-[(1-methylimidazol-4-yl)amino]pyrimidin-5-yl]phenyl]acetamide]
- IC50 (FLT3-ITD): 0.0001 to 10 µM
- IC50 (c-KIT): 0.0001 to 10 µM

SMILES: Cn1cc(Nc2ncc(-c3ccc(CC(=O)Nc4ccc(C(F)(F)F)cn4)cc3)cn2)cn1 [Compound P-0109, 2-[4-[2-[(1-methylpyrazol-4-yl)amino]pyrimidin-5-yl]phenyl]-N-[5-(trifluoromethyl)-2-pyridyl]acetamide]
- IC50 (FLT3-ITD): 0.0001 to 10 µM
- IC50 (c-KIT): 0.0001 to 10 µM

SMILES: Cn1cc(Nc2ncc(-c3ccc(CC(=O)Nc4ccc(C(F)(F)F)cn4)c(F)c3)cn2)cn1 [Compound P-0106, 2-[2-fluoro-4-[2-[(1-methylpyrazol-4-yl)amino]pyrimidin-5-yl]phenyl]-N-[5-(trifluoromethyl)-2-pyridyl]acetamide]
- IC50 (FLT3-ITD): 0.0001 to 10 µM
- IC50 (c-KIT): 0.0001 to 10 µM

SMILES: Cn1cnc(Nc2ncc(-c3ccc(CC(=O)Nc4cncc(C(C)(F)F)c4)c(F)c3)cn2)c1 [Compound P-0103, N-[5-(1,1-difluoroethyl)-3-pyridyl]-2-[2-fluoro-4-[2-[(1-methylimidazol-4-yl)amino]pyrimidin-5-yl]phenyl]acetamide]
- IC50 (FLT3-ITD): 0.0001 to 10 µM
- IC50 (c-KIT): 0.0001 to 10 µM

SMILES: Cn1cnc(Nc2ncc(-c3ccc(CC(=O)Nc4cnc(F)c(C(C)(F)F)c4)cc3F)cn2)c1 [Compound P-0170, N-[5-(1,1-difluoroethyl)-6-fluoro-3-pyridyl]-2-[3-fluoro-4-[2-[(1-methylimidazol-4-yl)amino]pyrimidin-5-yl]phenyl]acetamide]
- IC50 (FLT3-ITD): 0.0001 to 10 µM
- IC50 (c-KIT): 0.0001 to 10 µM

SMILES: COc1cc(NC(=O)Cc2ccc(-c3cnc(Nc4cnn(C)c4)nc3)cc2)ccn1 [Compound P-0153, N-(2-methoxy-4-pyridyl)-2-[4-[2-[(1-methylpyrazol-4-yl)amino]pyrimidin-5-yl]phenyl]acetamide]
- IC50 (FLT3-ITD): 0.0001 to 10 µM
- IC50 (c-KIT): 0.0001 to 10 µM

SMILES: COc1nn(C[C@H](C)O)cc1Nc1ncc(-c2ccc(CC(=O)Nc3cnc(C)c(C(F)(F)F)c3)cc2)cn1 [Compound P-0180, 2-[4-[2-[[1-[(2S)-2-hydroxypropyl]-3-methoxy-pyrazol-4-yl]amino]pyrimidin-5-yl]phenyl]-N-[6-methyl-5-(trifluoromethyl)-3-pyridyl]acetamide]
- IC50 (FLT3-ITD): 0.0001 to 10 µM
- IC50 (c-KIT): 0.0001 to 10 µM

SMILES: N#Cc1ccc(-c2cc3cc(-c4ccc(CC(=O)Nc5cncc(C(F)(F)F)c5)cc4F)cnc3[nH]2)cn1 [Compound P-0195, 2-[4-[2-(6-cyano-3-pyridyl)-1H-pyrrolo[2,3-b]pyridin-5-yl]-3-fluoro-phenyl]-N-[5-(trifluoromethyl)-3-pyridyl]acetamide]
- IC50 (FLT3-ITD): 0.0001 to 10 µM
- IC50 (c-KIT): 0.0001 to 10 µM

SMILES: Cn1cc(Nc2ncc(-c3ccc(CC(=O)Nc4cc(Cl)c(C5CC5)cn4)c(F)c3)cn2)cn1 [Compound P-0107, N-(4-chloro-5-cyclopropyl-2-pyridyl)-2-[2-fluoro-4-[2-[(1-methylpyrazol-4-yl)amino]pyrimidin-5-yl]phenyl]acetamide]
- IC50 (FLT3-ITD): 0.0001 to 10 µM
- IC50 (c-KIT): 0.0001 to 10 µM

SMILES: CCc1cncc(NC(=O)Cc2ccc(-c3cnc(Nc4cnn(C)c4)nc3)cc2F)c1 [Compound P-0111, N-(5-ethyl-3-pyridyl)-2-[2-fluoro-4-[2-[(1-methylpyrazol-4-yl)amino]pyrimidin-5-yl]phenyl]acetamide]
- IC50 (FLT3-ITD): 0.0001 to 10 µM
- IC50 (c-KIT): 0.0001 to 10 µM

SMILES: Cn1cc(Nc2ncc(-c3ccc(CC(=O)NCc4cncc(C(F)(F)F)c4)cc3)cn2)cn1 [Compound P-0161, 2-[4-[2-[(1-methylpyrazol-4-yl)amino]pyrimidin-5-yl]phenyl]-N-[[5-(trifluoromethyl)-3-pyridyl]methyl]acetamide]
- IC50 (FLT3-ITD): 0.0001 to 10 µM
- IC50 (c-KIT): 0.0001 to 10 µM
